From article PMC11971462, “Generation and validation of a novel multitarget small molecule in glioblastoma” (Cell Death & Disease, 2025)

How the values were obtained:
[1] = tested on: gastric, pancreatic and lung cancer cells; test: MTT cell viability, summary for other tumor cells; format: cell-based; conditions: Homo sapiens, 72 h, summary statement
Method: (§1) MTT assay was used to study cell viability. For that, cells were seeded at a density of 1.5 × 10^3 cells/well in 96-well plates, incubated overnight and then treated with increasing concentrations of DDI199. After 72 h of treatment, MTT absorbance was measured at 570 nm. GraphPad Prism software was used to analyze results and calculate IC50 values.

[2] = tested on: GNS166 cells; test: q-RTPCR of selected DEGs; format: cell-based, human; conditions: GNS166 treated versus non-treated
Method: Total RNA was extracted using Trizol (Life Thechnologies). Reverse transcription was then performed with the Maxima First Strand cDNA Synthesis Kit (ThermoFisher), following manufacturer’s guidelines. Quantitative real-time PCR was carried out in a CFX384 Thermal Cycler (BioRad) by Absolute SYBR Green mix (ThermoFisher). GAPDH was used as housekeeping gene for the correction of variations on initial cDNA levels, and relative gene expression was determined using the 2^-ΔΔCt formula.

[3] = tested on: U87-MG cells; test: Western blot of HDAC6, HDAC1, acetyl α-tubulin, acetyl H3; format: cell-based, human
Method: (§2) Protein lysates were resolved using sodium dodecyl sulfate-polyacrylamide gel electrophoresis. Primary antibodies against HDAC1 (Ab109411, abcam), HDAC6 (7558S, Cell Signaling), acetyl H3 (9649, Cell Signaling), acetyl α-tubulin (Ab24610, abcam), acetylated-Lysine (9441, Cell Signaling) and β-actin (A5441, Sigma-Aldrich) were used. Membranes were then incubated with the corresponding anti-rabbit (7074S, Cell Signaling) or anti-mouse (7076S, Cell Signaling) secondary antibody conjugated to horseradish peroxidase (HRP), and NOVEX ECL Chemi Substrate (ThermoFisher) or SuperSignal West Femto Maximum Sensitivity Substrate (ThermoFisher) was used for protein detection by iBright imaging system.

[4] = tested on: GNS166 cells; test: as above; format: cell-based, human; conditions: U87-MG and glioma stem cells (GNS166)
Method: as §2

[5] = tested on: GNS166 cells; test: Immunofluorescence of pH3, Cleaved Caspase 3, Ki67, PARP1; format: cell-based, human; conditions: for pH3-positive cells: control 3%
Method: (§3) Immunofluorescence assays were performed following standard procedures. Cells were seeded at a density of 2 × 10^4 cells/well in 8-well immunofluorescence chambers (LabTek Thermo) and incubated overnight before treating with increasing concentrations of DDI199. After 48 h, cells were fixed with 4% PFA. Primary antibodies against phosphohistone H3 (pH3) (ab14955, abcam), Cleaved Caspase 3 (AF385, R&D Systems), Ki67 (ab15580, abcam) and PARP1 (ab32064, abcam) were used. Secondary antibodies were Alexa Fluor anti-mouse (A21422, Invitrogen) and Alexa Fluor anti-rabbit (A31572, Invitrogen), and chromatin was stained with DAPI (D9541, Sigma-Aldrich). Axio Observer 7 epifluorescence microscope was used to take pictures, which were later quantified in Qupath.

[6] = tested on: GNS179 cells; test: Immunofluorescence of pH3, Cleaved Caspase 3; format: cell-based, human; conditions: for pH3-positive cells: control […]
Method: as §3

[7] = tested on: U87-MG and U251-MG cells; test: Immunofluorescence of pH3 and Cleaved Caspase-3; format: cell-based, human; conditions: U87-MG and U251-MG, 1, 5 and 10 μM
Method: as §3

[8] = tested on: U87-MG tumors; test: Immunohistochemistry of subcutaneous tumors; format: in vivo, athymic nude-Foxn1nu mice
Method: Subcutaneous tumors were extracted, fixed with 4% formaldehyde for 48 h and embedded in paraffin. Tumor sections were obtained and stainings for acetyl H3 (9649, Cell Signaling), acetylated α-tubulin (ab179484, abcam), PCNA (Ab18197, abcam) and Cleaved Caspase 3 (AF835, R&D Systems) were performed. ZEISS Axioscan 7 slide scanner was used to capture images of the stainings and analyses were done using Qupath.

[9] = tested on: patient-derived GSCs; test: MTT cell viability, summary for patient-derived GSCs; format: cell-based; conditions: Homo sapiens, 72 h, summary statement
Method: as §1

[10] = biological target: T1, recombinant hBChE (Homo sapiens, UniProt P06276); test: BChE inhibition and kinetics, Ellman's colorimetric method; format: biochemical
T1 construct: purchased Sigma-Aldrich
T1 sequence (P06276 29-602): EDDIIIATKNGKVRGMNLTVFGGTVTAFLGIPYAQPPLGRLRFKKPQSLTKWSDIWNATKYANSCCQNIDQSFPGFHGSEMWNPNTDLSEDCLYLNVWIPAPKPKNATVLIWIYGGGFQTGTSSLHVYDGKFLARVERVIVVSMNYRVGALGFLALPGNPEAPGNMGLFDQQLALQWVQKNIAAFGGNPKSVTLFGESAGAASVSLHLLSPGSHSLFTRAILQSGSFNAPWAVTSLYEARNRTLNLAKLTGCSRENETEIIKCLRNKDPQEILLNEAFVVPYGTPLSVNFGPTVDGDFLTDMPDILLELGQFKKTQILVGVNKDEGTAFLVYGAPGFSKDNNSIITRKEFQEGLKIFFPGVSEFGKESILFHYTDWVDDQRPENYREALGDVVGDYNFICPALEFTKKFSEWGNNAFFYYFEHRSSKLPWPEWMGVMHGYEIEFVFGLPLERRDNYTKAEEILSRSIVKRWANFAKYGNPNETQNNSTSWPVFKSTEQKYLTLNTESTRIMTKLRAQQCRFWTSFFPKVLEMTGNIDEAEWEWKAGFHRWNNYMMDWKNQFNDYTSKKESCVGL
Method: Similarly, Ellman’s colorimetric method was used to study the inhibitory capacity of the compound on ChEs. Enzyme solution containing either recombinant hAChE (Sigma-Aldrich) at 0.5 U/mL or hBChE (Sigma-Aldrich) at 0.25 U/mL was incubated with inhibitor solution containing 10 µM of DDI199 or reference compound and 0.3 mM of DTNB (Sigma-Aldrich) for 20 minutes at 37 °C. […] In addition, kinetic of enzyme inhibition was also studied by repeating the same protocol and using five different concentrations of the substrate and four different concentrations of the inhibitor. Results were represented in a Lineweaver-Burk plot using GraphPad Prism software, and the constant of inhibition (Ki) was estimated from the point at which the line cuts the x-axis at the secondary plot.

[11] = tested on: U87-MG tumor cells; test: Re-injection (regrowth) of cells from treated tumors; format: in vivo, athymic nude-Foxn1nu mice
Method: For tumor growth experiments, 5 × 10^5 U87-MG cells were subcutaneously injected into two bottom flanks of athymic nude-Foxn1^nu mice, and once tumors reached a size of 25-50 mm^3, mice were sorted into groups taking into account gender and tumor size. Afterwards, mice were intratumorally treated with vehicle, SAHA 100 µM or DDI199 100 µM following a schedule of 5 days on and 2 days off. In combined treatment, mice were treated intraperitoneally with 0.5 mg/Kg of TMZ for 5 days and intratumorally following a schedule of 5 days on and 2 days off with vehicle, SAHA 100 µM or DDI199 100 µM. After 4 weeks of treatment, some mice were kept for washout experiment, while the rest were sacrificed and tumors were extracted for immunohistochemistry and to disaggregate for reinjection and oncosphere formation studies. For reinjection assays, 1.5 × 10^5 cells were subcutaneously injected and tumor size was periodically measured. Once tumors reached end-point criteria, they were extracted for immunohistochemical analysis. An external caliper was used for tumor size measurement and the tumor volume was estimated using the formula V = L · W^2 · 0.5 (where L is tumor length and W is the tumor width).

## C#CCN(Cc1cc2cc(OCCCN3CCCCC3)ccc2n1S(=O)(=O)c1ccccc1)C(=O)CCCCCCC(=O)NO [DDI199]
[1]
  IC50: < 3000 nM
[2]
  Expression of genes associated to neurotransmission/synapsis (q-RTPCR): significantly higher
  Expression of genes associated with cell cycle and DNA remodeling (q-RTPCR): significantly reduced
[3]; U87-MG, 0.5, 1 and 10 µM
  acetylated H3 level: increased their levels with increasing concentrations
  acetylated α-tubulin level: increased their levels with increasing concentrations
[3]; U87-MG, western blot
  HDAC1 protein level: decrease
  HDAC6 protein level: did not alter
[4]
  acetylated α-tubulin and acetylated H3 versus reference inhibitors: higher acetylated α-tubulin and acetylated H3 increase than SAHA and Tubastatin A
[5]; GNS166, 1 µM
  pH3-positive cells: 2%
[5]; GNS166, 5 µM
  Ki67 positive cells: almost blocking completely
  pH3-positive cells: 0.6%
[5]; GNS166, 10 µM
  pH3-positive cells: 0.1%
[5]; GNS166, 1, 5 and 10 µM
  Cleaved Caspase-3-positive cells: increase
  PARP-positive cells: dose-dependent induction of apoptosis
[6]; GNS179, 1 µM
  pH3-positive cells: 2.4%
[6]; GNS179, 5 µM
  pH3-positive cells: 0.8%
[6]; GNS179, 10 µM
  pH3-positive cells: 0.11%
[6]; GNS179, 1, 5 and 10 µM
  Cleaved Caspase-3-positive cells: increase
[7]
  Caspase-3 positive cells: markedly increased
  p-H3 positive cells: reduced
[8]; tumors at day 34, 100 µM intratumoral
  acetyl H3 immunohistochemical staining: 83%
[8]; tumors at day 34, control 0.25
  acetyl α-tubulin immunohistochemical staining: 0.32
[8]; tumors at day 34, control 0.7%
  Cleaved Caspase 3 positive cells: 1.5%
[8]; tumors at day 34, control 70%
  PCNA positive cells: 64%
[9]
  IC50: 5000 to 13000 nM
[10]
  IC50: 2540 nM
[10]; 10 µM compound, read-out: BChE inhibition percentage
  inhibition at 10 µM: 75%
[10]; Lineweaver-Burk plot
  BChE type of inhibition: mixed inhibition
[10]; from Lineweaver-Burk and secondary plots
  Ki: 870 nM
[11]; cells from TMZ + DDI199 treated tumors
  Tumors reforming after re-injection, combined with TMZ: 1 tumor out of 3
[11]; cells from treated tumors
  Reduction of final tumor weight after re-injection versus control: ~70%
  Reduction of tumor volume after re-injection versus control: 60%
[11]; cells from treated tumors, controls over 500 mm^3
  Mean tumor volume after re-injection: 200 mm^3
